Earlier results, collected in article PMC7397562 (Drug Design, Development and Therapy, 2020).

Oral absolute bioavailability (mean value): < 3.05%
Structure (SMILES): COc1ccc(-c2cc(=O)c3c(OC)c(OC)c(OC)c(OC)c3o2)cc1 [TAGE, tangeretin]
